Test results from US10822376B2, “Biologically active peptides” (Baxalta Incorporated, priority 2008, dated 2020).

System: FVIII−/− (E17) mice
Test: Tail clip assay in FVIII−/− mice (blood loss, survival)
Protocol: Groups of mice, typically 8-16 male and female exon 17 FVIII knockout mice with severe hemorrhagic diathesis, receive a single i.v. (tail vein), i.p. or s.c. bolus injection (10 ml/kg body weight). Two minutes before tail clip, animals are anesthetized by an i.p. application of 100 mg/kg ketamine and 5 mg/kg xylazine. Five minutes after i.v. and 60 minutes after i.p. or s.c. peptide or peptide derivative administration 0.5 cm of the tail tip is ablated. Blood dropping from the wound is collected in tubes containing 5.0 ml 0.04% NH3 for defined time periods, such as 0-2 minutes, 2-4 minutes, 4-6 minutes, 6-8, 8-10, 10-12, 12-14, 14-16, 16-20, 20-24, 24-28, 28-32, 32-42, 42-52 and 52-62 minutes. Blood cells in each tube are disrupted and hemoglobin is extracted by a three hour incubation period at room temperature followed by ultrasound treatment. The absorbance at 414 nm and 620 nm of the extracts is determined in micro titre plates. 620 nm is a reference wavelength and the A620 reading is subtracted from the A414 reading. The amount of blood in the extract corresponding to the subtracted reading is calculated from a standard curve created by known amounts of blood from wild type control mice, such as C57/BI6 mice. Parameters of the bleeding characteristics of the mice to be recorded are total blood loss, bleeding rate, bleeding time, 1 h, 2 h, 3 h, 4 h, 24 h and 48 h survival. Cumulative blood loss is calculated by summing up the amounts of blood for each time period. Data for the animals of a group are averaged and plotted against bleeding time. At each time point data sets for treatment and vehicle control groups are analysed by Student's t-test for statistical significance.
Parameters quantified were total blood loss, bleeding time, bleeding rate and survival.
Blood loss was monitored in the tail clip assay as described in the specific description for 62 minutes after tail clip. FVIII−/− mice were administered with rFVIII (Advate®) at 25, 50 or 100 U/kg i.v. or with vehicle alone. […] As a control, C57BI/6 mice were administered vehicle alone.
Vehicle was 5% DMSO, 5% Cremophor EL, 0.05% Tween 80 in water for injection.

Ac-RMKFDVWDLYFEIVW-NH2 [Peptide A01]
Survival vs vehicle control (20 mg/kg i.v.): statistically significant longer survival | Mean volume of blood loss following tail clip compared to vehicle control (20 mg/kg i.v. five minutes before tail clip, p<0.05 at most time points): significantly different | p of difference in mean blood loss vs vehicle (20 mg/kg i.v., at 52 and 62 minutes after tail clip): < 0.01 | Survival (%) 2 hours (FVIII−/− mice, 20 mg/kg i.v. five minutes before tail clip, 2 hours (Table 26)): 56% | Survival (%) 4 hours (FVIII−/− mice, 20 mg/kg i.v. five minutes before tail clip, 4 hours (Table 26)): 25% | Survival (%) 24 hours (FVIII−/− mice, 20 mg/kg i.v. five minutes before tail clip, 24 hours (Table 26)): 6% | Survival (%) 48 hours (FVIII−/− mice, 20 mg/kg i.v. five minutes before tail clip, 48 hours (Table 26)): 0% | Survival (%) 2 hours (FVIII−/− mice, Exp 1, 20 mg/kg i.v., tail clip, 2 hours): 56% | Survival (%) 3 hours (FVIII−/− mice, Exp 1, 20 mg/kg i.v., tail clip): 44% | Survival (%) 4 hours (FVIII−/− mice, Exp 1, 20 mg/kg i.v., tail clip, 4 hours): 25% | Survival (%) 24 hours (FVIII−/− mice, Exp 1, 20 mg/kg i.v., tail clip, 24 hours): 6% | Survival (%) 2 hours (FVIII−/− mice, Exp 2 (repeat), 20 mg/kg i.v., tail clip, 2 hours): 63% | Survival (%) 3 hours (FVIII−/− mice, Exp 2 (repeat), 20 mg/kg i.v., tail clip): 38% | Survival (%) 4 hours (FVIII−/− mice, Exp 2 (repeat), 20 mg/kg i.v., tail clip, 4 hours): 31% | Survival (%) 24 hours (FVIII−/− mice, Exp 2 (repeat), 20 mg/kg i.v., tail clip, 24 hours): 13% | Total blood loss (% of Vehicle) (FVIII−/− mice, female, 20 mg/kg i.p., 0.5 cm tail clip): 72 % of Vehicle | Survival 2 hours (%) (FVIII−/− mice, female, 20 mg/kg i.p., 0.5 cm tail clip, 2 hours): 75% | Survival 4 hours (%) (FVIII−/− mice, female, 20 mg/kg i.p., 0.5 cm tail clip, 4 hours): 25% | Survival 24 hours (%) (FVIII−/− mice, female, 20 mg/kg i.p., 0.5 cm tail clip, 24 hours): 25% | Survival 2 hours (%) (FVIII−/− mice, female, 20 mg/kg i.v., 1 cm tail clip, 2 hours): 80% | Survival 24 hours (%) (FVIII−/− mice, female, 20 mg/kg i.v., 1 cm tail clip, 24 hours): 10% | Total blood loss (% of Vehicle) (FVIII−/− mice, male, 20 mg/kg i.p., 0.5 cm tail clip): 83 % of Vehicle | Survival 2 hours (%) (FVIII−/− mice, male, 20 mg/kg i.p., 0.5 cm tail clip, 2 hours): 38% | Survival 4 hours (%) (FVIII−/− mice, male, 20 mg/kg i.p., 0.5 cm tail clip, 4 hours): 25% | Survival 24 hours (%) (FVIII−/− mice, male, 20 mg/kg i.p., 0.5 cm tail clip, 24 hours): 25% | Survival 2 hours (%) (FVIII−/− mice, male, 20 mg/kg i.v., 1 cm tail clip, 2 hours): 20% | Survival 24 hours (%) (FVIII−/− mice, male, 20 mg/kg i.v., 1 cm tail clip, 24 hours): 0% | Compensation for lack of FVIII (reducing blood loss, increasing survival following tail clip) (conclusion): at least partially compensate for the lack of FVIII | Gender effect on efficacy (i.v., tail clip 1 cm): more effective in female than male mice | Difference in survival curves vs vehicle (male mice, 20 mg/kg i.p., 0.5 cm tail clip): no statistically significant difference | Bleeding and survival in two independently performed experiments (repeat experiment): bleed less and survive longer | Activity in the tail clip assay (summary): possessing activity
